Where two headings read alike, the source gives them in different places.
Columns and labels:
Calu3 = test: In vitro anti-proliferative activity (NBB assay), Calu3; assay type: cell-based, human; settings: 72 h
Method: (§1) Cells (4×10^3 cells/well) were seeded in a microtiter plate (96 wells) and incubated overnight before the treatment. […] After the media was removed, the cells were fixed with formaldehyde (3%; 50 μL) in PBS and stained with NBB reagent (0.05%, 0.1 M sodium acetate, 9% acetic acid; 50 μL) for overnight. The stained cells in each well were washed thrice gently with deionized water and solubilized in sodium hydroxide solution (50 mM; 100 μL). The cell viability was determined by measuring the absorbance of 620 nm in each well by microplate reader. The experiments were repeated in triplicate.

HCC827 = test: In vitro anti-proliferative activity (NBB assay), HCC827; assay type: cell-based, human; settings: 72 h
Method: as §1

NCI-H460 = test: In vitro anti-proliferative activity (NBB assay), NCI-H460; assay type: cell-based; settings: Table 1; 72 h; read-out: IC50 NCI-H460 lung
Method: as §1

A549 = test: In vitro anti-proliferative activity (NBB assay), A549; assay type: cell-based; settings: Table 1; 72 h; read-out: IC50 A549 lung
Method: as §1

SKBR3 = test: In vitro anti-proliferative activity (NBB assay), SKBR3; assay type: cell-based; settings: 72 h
Method: as §1

MDA-MB-231 = test: In vitro anti-proliferative activity (NBB assay), MDA-MB-231; assay type: cell-based; settings: Table 1; 72 h; read-out: IC50 MDA-MB-231 breast
Method: as §1

SKOV3 = test: In vitro anti-proliferative activity (NBB assay), SKOV3; assay type: cell-based; settings: Table 1; 72 h; read-out: IC50 SKOV3 ovarian
Method: as §1

NCI-N87 = test: In vitro anti-proliferative activity (NBB assay), NCI-N87; assay type: cell-based; settings: Table 1; 72 h; read-out: IC50 NCI-N87 gastric
Method: as §1

BxPC3 = test: In vitro anti-proliferative activity (NBB assay), BxPC3; assay type: cell-based, human; settings: 72 h
Method: as §1

SW1990 = test: In vitro anti-proliferative activity (NBB assay), SW1990; assay type: cell-based, human; settings: 72 h
Method: as §1

PANC1 = test: In vitro anti-proliferative activity (NBB assay), PANC1; assay type: cell-based; settings: Table 1; 72 h; read-out: IC50 PANC1 pancreas
Method: as §1

MHCC97L = test: In vitro anti-proliferative activity (NBB assay), MHCC97L; assay type: cell-based; settings: Table 1; 72 h; read-out: IC50 MHCC97L liver
Method: as §1

HCT116 = test: In vitro anti-proliferative activity (NBB assay), HCT116; assay type: cell-based; settings: Table 1; 72 h; read-out: IC50 HCT116 colon
Method: as §1

HT29 = test: In vitro anti-proliferative activity (NBB assay), HT29; assay type: cell-based; settings: Table 1; 72 h; read-out: IC50 HT29 colon
Method: as §1

HEK293 = test: In vitro anti-proliferative activity (NBB assay), HEK293; assay type: cell-based, human; settings: Table 1; 72 h; read-out: IC50 HEK293 kidney
Method: as §1

[1] = system: TROP2-overexpressed cancer cells (HCC827, Calu3, BxPC3, SW1990, SKBR3); test: NBB assay, summary over TROP2-overexpressed cancer cells; assay type: cell-based; settings: all the cells of Table 2
Method: as §1

[2] = system: TROP2-overexpressed cancer cells (HCC827, Calu3, BxPC3, SW1990); test: Flow cytometric binding study, TROP2-overexpressed cells; assay type: cell-based, human; settings: flow cytometry, 4° C., 1 h
Method: Cells (2×10^5 cells/tube) were suspended in FACS staining buffer (2% FBS in PBS) into a 1.5 mL eppendorf tube. They were incubated with Sacituzumab, ADC-Au or IgG control respectively in staining buffer (100 μL) at 4° C. After 1 h, the cell suspensions were centrifuged at 1500 rpm for 3 min at 4° C. and washed with staining buffer (1 mL) twice to discard unbound antibodies. The cells were then incubated with Alexa Fluor 594 goat anti-human secondary antibody at 4° C. for 1 h and then subject to centrifugation. The cells were washed twice again and were resuspended in staining buffer. The mean fluorescence intensities (MFI) were measured using Beckman Cytoflex S Flow Cytometer.

panel of cell lines = test: NBB assay, summary over the panel of cell lines; assay type: cell-based
Method: as §1

[3] = Table 1, read-out: IC50 Calu3 lung
[4] = Table 1, read-out: IC50 HCC827 lung
[5] = Table 1, read-out: IC50 SKBR3 breast
[6] = Table 1, read-out: IC50 BxPC3 pancreas
[7] = Table 1, read-out: IC50 SW1990 pancreas

| Compound | IC50 (Calu3; [3]) [nM] | IC50 (HCC827; [4]) [nM] | IC50 (NCI-H460) [nM] | IC50 (A549) [nM] | IC50 (SKBR3; [5]) [nM] | IC50 (MDA-MB-231) [nM] | IC50 (SKOV3) [nM] | IC50 (NCI-N87) [nM] | IC50 (BxPC3; [6]) [nM] | IC50 (SW1990; [7]) [nM] | IC50 (PANC1) [nM] | IC50 (MHCC97L) [nM] | IC50 (HCT116) [nM] | IC50 (HT29) [nM] | IC50 (HEK293) [nM] | further results |
| --- | --- | --- | --- | --- | --- | --- | --- | --- | --- | --- | --- | --- | --- | --- | --- | --- |
| C1=CC2=[N+]3C1=C(c1ccccc1)c1ccc4[n]1[Au-]31[n]3c(ccc3=C(c3ccccc3)C3=[N+]1C(=C4c1ccccc1)C=C3)=C2c1ccccc1.Cl [AuTPP, gold (III) tetraphenylporphyrin, reference compound] | 290 | 140 | 120 | 90 | 80 | 180 | 90 | 100 | 80 | 170 | 100 | 150 | 150 | 120 | 130 | – |
| Sacituzumab: TROP2-targeted monoclonal antibody (MCE) | – | – | – | – | – | – | – | – | – | – | – | – | – | – | – | IC50 (Calu3; Table 2, Example 1 (Sacituzumab ADC), read-out: IC50 Calu3): > 2000 nM; IC50 (HCC827; Table 2, Example 1 (Sacituzumab ADC), read-out: IC50 HCC827): > 2000 nM; IC50 (SKBR3; Table 2, Example 1 (Sacituzumab ADC), read-out: IC50 SKBR3): > 2000 nM; IC50 (BxPC3; Table 2, Example 1 (Sacituzumab ADC), read-out: IC50 BxPC3): > 2000 nM; IC50 (SW1990; Table 2, Example 1 (Sacituzumab ADC), read-out: IC50 SW1990): > 2000 nM; cell growth inhibition [1]: not obvious; specific binding to TROP2-overexpressed cancer cells [2]: significant specific-binding |
| O=C(O)c1ccc(C2=c3ccc4[n]3[Au-]35[n]6c(ccc6C(c6ccccc6)=C6C=CC2=[N+]63)C(c2ccccc2)=C2C=CC(=[N+]25)C=4c2ccccc2)cc1.[Cl-] (centres unmarked) [AuCOOH] | 1760 | 1770 | 420 | 690 | 270 | 710 | 2890 | 1310 | 840 | 2190 | 2430 | 2650 | 710 | 640 | 650 | cytotoxicity / potency compared with the other gold complexes (panel of cell lines): lowest cytotoxicity |
